What was measured:
[1] = tested on: MCF-7 human breast adenocarcinoma cell line; assay: MTT proliferation/viability assay, MCF-7; type: cell-based; settings: MCF7, 72 h/37°C, mean ± S.D.
Protocol: The MCF-7 human breast adenocarcinoma cell line was purchased from the European Collection of Cell Cultures (U.K.). The HL-60 human promyelocytic leukemia cell line, HCT116 human colorectal carcinoma cell line, H9c2 rat heart-derived myoblast cell line and 3T3 mouse embryo fibroblast line, were obtained from the American Type Culture Collection (VA, U.S.A.). Cells were cultured in Dulbecco's modified Eagle's medium (DMEM, Lonza, Switzerland) with or without (for MCF-7 cells only) phenol red, supplemented with 10% heat-inactivated fetal bovine serum (FBS; Lonza, Switzerland), 1% penicillin/streptomycin solution (Lonza, Switzerland) and 10 mM HEPES buffer (pH 7.0-7.6; Sigma-Aldrich, Germany). The HL-60 cell line was maintained in RPMI medium (Sigma-Aldrich, Germany) supplemented with 10% heat-inactivated FBS and 1% penicillin/streptomycin solution. All cell lines were cultured in 75 cm^2 tissue culture flasks (Switzerland) at 37°C in a humidified atmosphere of 5% CO2. Sub-confluent cells or, in the case of HL-60 cells, a cell suspension, were sub-cultured every 3-4 days.
Cells were seeded in 96-well plates for 24 h/37°C at a density of 5,000 (MCF-7), 10,000 (HL-60), 2,000 (HCT116) and 10,000 (3T3 and H9c2) cells/well. For 3T3 and H9c2 cells, the medium was changed to serum- and pyruvate-free DMEM 24 h prior to the experiments. Anti-proliferative and cytotoxicity effects of the compounds were studied at different concentrations after incubations for 72 h/37°C. Viabilities of cells were determined using MTT assays (Sigma-Aldrich, Germany) according to the manufacturer's instructions on a Tecan Infinite 200M plate reader (Tecan, Austria). The proliferation/viability of treated groups was expressed as a percentage of the untreated controls (100%).

MCF-7 cells = assay: 59Fe mobilization from cells prelabeled with 59Fe-transferrin; type: cell-based, human; settings: MCF-7 prelabeled with 59Fe-transferrin, compounds 25 μmol·L^−1, 3 h/37°C
Protocol: Iron chelation efficiency of the compounds at a concentration of 10 μmol·L^−1 was determined via 3 methods: (1) the calcein assay; (2) the ability of the ligands to induce ^59Fe mobilization from cells prelabeled with ^59Fe-transferrin; and (3) the efficacy of these agents to inhibit the uptake of ^59Fe from ^59Fe-transferrin [22, 38–40].
The fluorimetric calcein-AM assay was performed by established methods, as described previously. The Fe chelation efficiency of the metabolites in cells was expressed as a percentage of that of the parent chelator, Dp44mT or DpC (100%). For studies assessing the ability of these agents to induce ^59Fe mobilization and inhibit ^59Fe uptake from ^59Fe-transferrin by cells, human transferrin (Sigma-Aldrich, Germany) was labeled with ^59Fe (PerkinElmer, MA, USA) to generate ^59Fe-transferrin at a final specific activity of 500 pCi/pmol Fe, as previously described. The unbound ^59Fe was removed by exhaustive vacuum dialysis against a large excess of 0.15 M NaCl buffered to pH 7.4 with 1.4% NaHCO3 by standard methods.
To examine the ability of the studied substances to mobilize ^59Fe from MCF-7 cells or inhibit ^59Fe uptake from ^59Fe-transferrin, established techniques were utilized. For ^59Fe mobilization studies, cells were preincubated with ^59Fe-transferrin (0.75 μmol·L^−1) for 3 h/37°C, washed 4 times at 4°C on ice, and then reincubated with control medium or control medium containing the compounds (25 μmol·L^−1) for 3 h/37°C. The release of ^59Fe from the cells into the overlying medium was then examined by collecting both the cells and overlying medium and assessing ^59Fe levels using a γ-counter. For studies examining the ability of the agents to inhibit ^59Fe uptake from ^59Fe-transferrin, cells were incubated for 3 h/37°C with ^59Fe-transferrin (0.75 μmol·L^−1) in the presence or absence of the agents (25 μmol·L^−1), and then washed 4 times at 4°C on ice. The internalization of ^59Fe by cells was then assessed by incubation for 30 min/4°C with the general protease, Pronase (1 mg/mL), utilizing standard techniques. The amount of internalized ^59Fe in the presence of the agents was expressed as a percentage of ^59Fe internalized by control cells incubated in the presence of control media alone.

[2] = parameters: method as in earlier work; settings: chronically repeated dosing at high non-optimal levels (Dp44mT, mice, ref 1); DpC at markedly higher doses; cited from earlier work

IC50 [1] [nM] | SMILES | 59Fe mobilization, % of cellular 59Fe (MCF-7 cells) [%] | cardiac fibrosis [2]
9 ± 2 | CN(C)C(=S)NN=C(c1ccccn1)c1ccccn1 [Dp44mT, di(2-pyridyl)ketone 4,4-dimethyl-3-thiosemicarbazone] | 51 | cardiac fibrosis was demonstrated
3 ± 1 | CN(C(=S)NN=C(c1ccccn1)c1ccccn1)C1CCCCC1 [DpC, di(2-pyridyl)ketone 4-cyclohexyl-4-methyl-3-thiosemicarbazone] | 44 | does not induce cardiac fibrosis

— publication PMC4767442 (Oncotarget, 2015)
